From PMC10320002, “In vitro antiproliferative, anti-inflammatory effects and molecular docking studies of natural compounds isolated from Sarcocephalus pobeguinii (Hua ex Pobég)” (Frontiers in Pharmacology, 2023) come the findings set out here.

Test [1] concerns Vero cells. The test is described as follows: MTT antiproliferation assay, non-cancerous Vero cells. The following applies: for IC50: Chlorocebus sabaeus, Vero, 48 h, MTT. The class given is cell-based, African green monkey. The method, then:
(§1) Cancerous cell lines (MCF-7: human breast adenocarcinoma cells; HepG2: human hepatocellular carcinoma cells; Caco-2: human epithelial colorectal adenocarcinoma cells; A549: human epithelial lung adenocarcinoma cells), obtained from the American Type Culture Collection (ATCC) (Rockville, MD, United States of America), were cultured in Dulbecco’s Modified Eagle’s Medium (DMEM) high glucose (4.5 g/L) containing L-glutamine (4 mM) and sodium-pyruvate (Hyclone™) supplemented with 10% (v/v) fetal bovine serum (FBS) (Capricorn Scientific GmbH, South America), and incubated at 37°C with 5% CO2 in a humidified environment. African green monkey (Vero) kidney cells (also obtained from ATCC), a non-cancerous cell line, were grown in DMEM high glucose (4.5 g/L) containing L-glutamine (Lonza, Belgium) and supplemented with 5% FBS (Capricorn Scientific GmbH, South America) and 1% gentamicin (Virbac, RSA) in the same environment as cancer cells. The RAW 264.7 murine macrophage cells (obtained from ATCC) were cultured in DMEM high glucose (4.5 g/L) containing L-glutamine (Lonza, Belgium), supplemented with 10% FBS (Capricorn Scientific GmbH, South America) and 1% penicillin/streptomycin/fungizone (PSF) solution, and kept at 37°C in a 5% CO2 humidified environment.
(§2) The cancerous and non-cancerous cells were seeded at a density of 10^4 cells per well in 96-well microtiter plates, and they were incubated overnight at 37°C with 5% CO2 in a 5% CO2 humidified environment in order to allow the attachment of cells at the bottom of the plates. Then, the cells were exposed to increasing concentrations of compounds (100, 50, 25, 10 and 5 μg/mL) dissolved in dimethyl sulfoxide (DMSO) and further diluted in fresh culture medium. In this assay, the final concentration of DMSO in the culture medium was 0.5% used as negative control while doxorubicin hydrochloride (Pfizer, United States of America) was used as a positive control. The culture plates were incubated for 48 h at 37°C in a 5% CO2 humidified environment, after which the culture medium was discarded, and replaced by 200 µL of fresh culture medium with 30 µL of 3-(4,5-dimethylthiazol-2-yl)-2,5-diphenyl-2H-tetrazolium bromide (MTT) (5 mg/mL) dissolved in phosphate buffered saline ([Mosmann, 1983]). After 4 h of incubation, the medium was gently removed, and the formazan crystals were solubilized in 50 µL of DMSO. The absorbance was measured at 570 nm after shaking for 1 min on a microplate reader (Synergy Multi-Mode Reader, BioTek, Winooski, United States of America).
(§3) The cell viability rate was determined at each concentration of the compound as a percentage of cells treated with DMSO at 0.5% used as negative control. […] The selectivity index (Supporting Material) values were calculated for each compound by dividing the IC50 of non-cancerous cells by the IC50 of cancerous cells in the same units ([Mfotie Njoya et al., 2018]; [Mfotie Njoya et al., 2020]).

The subject of test [2] is HepG2 cells. The test is described as follows: MTT antiproliferation assay, HepG2. The following applies: for IC50: Homo sapiens, HepG2, 48 h, MTT; for SI values HepG2: IC50 of non-cancerous Vero cells divided by IC50 of HepG2. The class given is cell-based, human. As to the method: as §1, §2, §3
Test [3] has as its system A549 cells. The test can be described thus: MTT antiproliferation assay, A549. In kind it is cell-based, human. The following applies: for IC50: Homo sapiens, A549, 48 h, MTT; for SI values A549: IC50 of non-cancerous Vero cells divided by IC50 of A549. As to the method: as §1, §2, §3
Test [4] addresses T1, 15-LOX (Glycine max, UniProt P08170).
T1 construct: purchased Merck, Darmstadt, Germany
T1 sequence (P08170 1-839): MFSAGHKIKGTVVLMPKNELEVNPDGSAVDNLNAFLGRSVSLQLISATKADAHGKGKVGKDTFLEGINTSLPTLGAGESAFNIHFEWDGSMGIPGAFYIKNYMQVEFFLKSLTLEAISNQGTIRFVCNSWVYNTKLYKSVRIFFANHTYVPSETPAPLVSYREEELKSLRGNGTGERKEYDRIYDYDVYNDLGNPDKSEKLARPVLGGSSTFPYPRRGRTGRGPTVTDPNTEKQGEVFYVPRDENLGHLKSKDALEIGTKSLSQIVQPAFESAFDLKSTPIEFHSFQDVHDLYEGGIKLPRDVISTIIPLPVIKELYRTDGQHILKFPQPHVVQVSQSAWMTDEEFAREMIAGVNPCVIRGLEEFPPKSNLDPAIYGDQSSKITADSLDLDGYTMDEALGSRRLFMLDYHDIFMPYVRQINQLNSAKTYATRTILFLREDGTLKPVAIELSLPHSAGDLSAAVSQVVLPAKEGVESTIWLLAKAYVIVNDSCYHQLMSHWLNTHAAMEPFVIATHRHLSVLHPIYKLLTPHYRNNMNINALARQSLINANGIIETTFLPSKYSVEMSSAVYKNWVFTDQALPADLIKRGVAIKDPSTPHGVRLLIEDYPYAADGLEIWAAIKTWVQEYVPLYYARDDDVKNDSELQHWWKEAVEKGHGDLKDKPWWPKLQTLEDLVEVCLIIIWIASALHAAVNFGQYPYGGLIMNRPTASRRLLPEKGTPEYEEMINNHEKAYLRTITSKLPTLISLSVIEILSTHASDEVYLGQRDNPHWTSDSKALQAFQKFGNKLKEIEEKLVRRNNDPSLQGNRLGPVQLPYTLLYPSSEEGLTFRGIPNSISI
The test is described as follows: Soybean 15-LOX inhibitory assay (FOX). In kind it is biochemical. The settings on record: linoleic acid 140 μM, pH 7.4, 25°C. As to the method:
This assay is based on the formation of the Fe^3+/xylenol orange (FOX) complex with maximal absorption at 560 nm ([Pinto et al., 2007]). Forty microliters of 15-LOX (final concentration: 200 UI/mL) from Glycine max (Merck, Darmstadt, Germany) was incubated with 20 µL of tested samples (100, 50, 25, 10, and 5 μg/mL) at 25°C for 5 min, with DMSO at 10% (v/v) being used as negative control. Thereafter, 40 µL of linoleic acid (final concentration, 140 μM) prepared in Tris-HCl buffer (50 mM, pH 7.4) was added, and the plates were further incubated at 25°C for 20 min in the dark. The assay was terminated by adding 100 μL of FOX reagent [sulfuric acid (30 mM), xylenol orange (100 μM), ferrous II) sulfate (100 μM), dissolved in methanol/water (9:1)], followed by the incubation of the plates at 25°C for 30 min in the dark. Finally, the absorbance was measured at 560 nm on a microplate reader (Epoch, BioTek, Winooski, United States of America). The blanks were made in the same way as tested samples except that the substrate was added after the FOX reagent. The 15-LOX inhibitory activity was calculated by using the following formula: 15−LOX inhibitory activity %=100−Abs sample−Abs blank/Abs negative control−Abs blank×100 (1)

Setting [5] is: read-out: IC50 values 15-LOX (converted).

Each structure is given as a SMILES string. Where “and” joins values, the source holds several entries; their conditions need not be identical. Identical values can stand only once. Like-named read-outs stand apart in the source and are kept apart here. A value given as a limit tells only on which side of the number the result lay.

As to `C[C@@H]1CC[C@]2(C(=O)O)CC[C@]3(C(=O)O)C(=CCC4[C@@]5(C)CC[C@H](O[C@H]6O[C@H](C)[C@@H](O)[C@H](O)[C@H]6O)C(C)(C)C5CC[C@]43C)C2[C@H]1C` (stereo partly drawn) [Compound 6, quinovic acid 3-O-[α-D-quinovopyranoside]], the IC50 in test [1] was 6.21 µg/mL and 9.81 µM; in test [2] it was 41.9 µg/mL and 66.3 µM; in test [3] it was 3.08 µM and 1.96 µg/mL; in test [4] (setting [5]), over 158 µM. Moreover, the “selectivity (SI) towards non-cancerous Vero cells” value in test [1] (cancer cells except A549 cells) is given as at most 1. The “SI values HepG2” value in test [2] was 0.14. In test [3], the “SI values A549” value came out at 3.17.

In the case of `CC1(C)CC[C@]2(C(=O)O)CC[C@]3(C)C(=CC[C@@H]4[C@@]5(C)CC[C@H](O)[C@@](C)(CO)[C@@H]5CC[C@]43C)[C@@H]2C1` [Compound 2, hederagenin], the IC50 in test [1] was 45.5 µg/mL and 96.3 µM; in test [2] it was 24.9 µg/mL and 52.6 µM; in test [3], 40.1 µM and 19 µg/mL; in test [4] (IC50 values 15-LOX) it was 28.4 µM and 28.2 µM. Moreover, the “SI values HepG2” value in test [2] worked out at 1.83. Moreover, the “SI values A549” value in test [3] is recorded as 2.40.

For `C[C@@H]1CC[C@]2(C(=O)O)CC[C@]3(C(=O)O)C(=CCC4[C@@]5(C)CC[C@H](O[C@@H]6O[C@H](C)[C@@H](O)[C@H](O)[C@H]6O)C(C)(C)C5CC[C@]43C)C2[C@H]1C` (stereo partly drawn) [Compound 9, quinovic acid 3-O-[β-D-quinovopyranoside]], the IC50 in test [1] is 47.1 µg/mL and 74.4 µM; in test [2], 47.2 µg/mL and 74.6 µM; in test [3] it was 69.9 µM and 44.2 µg/mL; in test [4] (setting [5]), 118 µM. Also, in test [1] (all cancer types (MCF-7, HepG2, Caco-2, A549)), the “selectivity (SI) for all cancer cells towards non-cancerous Vero cells” value is at most 1. For the same compound, the “SI values HepG2” value in test [2] was 0.99. Moreover, in test [3], the “SI values A549” value came out at 1.06.

With `C[C@]12COCC=C1C[C@H]1c3[nH]c4ccccc4c3CCN1C2=O` [Compound 10, latifoliamide C], the IC50 was 65.8 µg/mL and 213 µM in test [1]; 54.5 µg/mL and 177 µM in test [2]; 143 µM and 44.2 µg/mL in test [3]; 253 µM in test [4] (setting [5]). For the same compound, in test [2], the “SI values HepG2” value was found to be 1.20. Moreover, in test [3], the “SI values A549” value came out at 1.49.
